Among the data in ChEMBL document CHEMBL1127892, “(6-oxo-3-pyridazinyl)-benzimidazoles as potent angiotensin II receptor antagonists” (Bioorg Med Chem Lett, 1994) are IC50 and Inhibition values, retold here.

In test [1] the target is T1, Angiotensin II receptor (AT-1) type-1 (Rattus norvegicus, UniProt P29089+P25095).
T1 sequence (P29089 whole entry): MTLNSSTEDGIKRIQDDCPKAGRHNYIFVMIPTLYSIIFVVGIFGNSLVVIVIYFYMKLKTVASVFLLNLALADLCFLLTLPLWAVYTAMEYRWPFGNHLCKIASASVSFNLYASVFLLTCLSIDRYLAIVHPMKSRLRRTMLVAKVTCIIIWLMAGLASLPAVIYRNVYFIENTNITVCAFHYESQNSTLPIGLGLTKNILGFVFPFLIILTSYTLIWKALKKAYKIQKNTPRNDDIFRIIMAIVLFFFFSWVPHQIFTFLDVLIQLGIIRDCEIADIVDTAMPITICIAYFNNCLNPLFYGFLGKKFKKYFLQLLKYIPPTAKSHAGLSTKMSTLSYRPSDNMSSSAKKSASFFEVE
T1 sequence (P25095 whole entry): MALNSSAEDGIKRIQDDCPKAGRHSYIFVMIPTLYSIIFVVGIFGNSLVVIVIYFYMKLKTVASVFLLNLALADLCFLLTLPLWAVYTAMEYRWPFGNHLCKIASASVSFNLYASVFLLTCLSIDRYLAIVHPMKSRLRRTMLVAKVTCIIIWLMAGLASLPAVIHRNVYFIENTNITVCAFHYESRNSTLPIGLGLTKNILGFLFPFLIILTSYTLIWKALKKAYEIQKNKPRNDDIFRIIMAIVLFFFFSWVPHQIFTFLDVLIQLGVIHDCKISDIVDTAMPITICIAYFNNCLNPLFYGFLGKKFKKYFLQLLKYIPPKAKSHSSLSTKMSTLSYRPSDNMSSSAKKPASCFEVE
Put plainly: Concentration required for 50% inhibition of binding against Angiotensin II receptor, type 1 in rat adrenal cortex. The test is classed as tissue-based.

Test [2] concerns the target T1, Angiotensin II receptor (AT-1) type-1. Put plainly: In vivo percent inhibition of Angiotensin II receptor, type 1 induced increase in diastolic blood pressure in pithed rat at 3 mg/kg i.d. Further details: dose 3 mg/kg, route intraduodenal. The test is classed as functional, organism-based, Artery.
For test [3], the target named is T2, Type-1 angiotensin II receptor (Oryctolagus cuniculus, UniProt P34976).
T2 sequence (P34976 whole entry): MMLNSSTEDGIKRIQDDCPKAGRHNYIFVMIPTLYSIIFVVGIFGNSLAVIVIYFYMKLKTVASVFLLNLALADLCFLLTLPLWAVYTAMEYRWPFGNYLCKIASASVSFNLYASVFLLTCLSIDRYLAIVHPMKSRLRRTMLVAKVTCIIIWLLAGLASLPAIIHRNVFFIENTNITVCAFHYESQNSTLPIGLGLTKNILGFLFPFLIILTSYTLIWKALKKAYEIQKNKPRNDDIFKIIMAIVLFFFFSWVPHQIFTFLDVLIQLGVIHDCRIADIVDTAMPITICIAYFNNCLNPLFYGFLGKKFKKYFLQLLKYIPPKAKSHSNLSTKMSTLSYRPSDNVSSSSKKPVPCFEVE
Put plainly: Inhibitory activity against Angiotensin II receptor, type 1 induced contractions in isolated rabbit aortic rings. In kind it is functional.

Test [4] deals with T3, Type-1 angiotensin II receptor (Bos taurus, UniProt P25104).
T3 sequence (P25104 whole entry): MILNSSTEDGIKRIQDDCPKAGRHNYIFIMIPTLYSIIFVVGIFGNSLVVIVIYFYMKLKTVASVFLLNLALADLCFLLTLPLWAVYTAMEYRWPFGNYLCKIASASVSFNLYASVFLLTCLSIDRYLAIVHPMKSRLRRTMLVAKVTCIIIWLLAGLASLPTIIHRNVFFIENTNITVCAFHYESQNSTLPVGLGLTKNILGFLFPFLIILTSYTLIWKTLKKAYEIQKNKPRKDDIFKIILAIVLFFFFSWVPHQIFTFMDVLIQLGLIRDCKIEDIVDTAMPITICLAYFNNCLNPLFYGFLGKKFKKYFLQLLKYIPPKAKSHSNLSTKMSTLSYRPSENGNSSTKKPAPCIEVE
The experiment in a line: Concentration required for 50% inhibition of binding against Angiotensin II receptor, type 1 in bovine adrenal cortex. In kind it is tissue-based.

Broadly, the IC50 is the midpoint of a concentration-inhibition curve. Low readings indicate inhibition by little substance, high ones a need for much substance. As a reminder, the Inhibition is the relative decrease from the control value, in per cent. `Cc1cc(O)nnc1-c1ccc2nc(C3CC3)n(Cc3ccc(-c4ccccc4-c4nn[nH]n4)cc3)c2c1`: the figures for the IC50 in test [1] and in test [3] were 0.0018 µM and 0.003 µM, respectively. Besides, the Inhibition in test [2] turned out to be 40%. For `COc1ccc(-c2nc3cc(C4=NNC(=O)CC4C)ccc3n2Cc2ccc(-c3ccccc3-c3nn[nH]n3)cc2)cc1` (stereo unspecified), the IC50 in test [4] was found to be 5.5 µM. This lies in the single-digit micromolar range. Regarding `CCCCc1nc2ccc(C3=NNC(=O)CC3C)cc2[nH]1` (stereo unspecified), in test [4], the IC50 was > 1000 µM.

For the compound `COC(=O)c1ccccc1CN1N=C(c2ccc3nc(C4CC4)n(Cc4ccc(-c5ccccc5-c5nn[nH]n5)cc4)c3c2)C(C)CC1=O` (stereo unspecified), the IC50 in test [1] is 0.0065 µM. On to `CCCCc1nc2ccc(C3=NNC(=O)CC3C)cc2n1Cc1ccc(-c2ccccc2-c2nn[nH]n2)cc1` (stereo unspecified), for which the IC50 in test [1] is 0.0063 µM; in test [4], 0.022 µM. Turning to `Cc1cc(=O)n(CC(=O)N(C)C)nc1-c1ccc2nc(C3CC3)n(Cc3ccc(-c4ccccc4-c4nn[n-]n4)cc3)c2c1.[K+]`, the IC50 in test [1] is 0.0036 µM. With `CCCCc1nc2cc(C3=NN(Cc4ccc(-c5ccccc5-c5nn[nH]n5)cc4)C(=O)CC3C)ccc2[nH]1` (stereo unspecified), the IC50 in test [4] came out at 7 µM. With `CCc1nc2ccc(C3=NN(CC(=O)N(C)C)C(=O)CC3)cc2n1Cc1ccc(-c2ccccc2-c2nn[n-]n2)cc1.[K+]`, the IC50 in test [1] amounted to 0.0016 µM; in test [3], 0.003 µM. The like results for `CCCc1nc2ccc(C3=NN(CC(=O)N(C)C)C(=O)CC3)cc2n1Cc1ccc(-c2ccccc2-c2nn[n-]n2)cc1.[K+]` were, in that order, 0.0017 µM and 0.002 µM. The compound `COc1ccc(-c2nc3cc(C4=NN(Cc5ccc(-c6ccccc6-c6nn[nH]n6)cc5)C(=O)CC4C)ccc3[nH]2)cc1` (stereo unspecified) displayed an IC50 in test [4] of 54 µM. In other words, the double-digit micromolar range.

In test [1], `CCCCc1nc2ccc(-c3nnc(O)cc3C)cc2n1Cc1ccc(-c2ccccc2-c2nn[nH]n2)cc1` had an IC50 of 0.0044 µM. In other words, the single-digit nanomolar range.

As to `COC(=O)CN1N=C(c2ccc3nc(C4CC4)n(Cc4ccc(-c5ccccc5-c5nn[nH]n5)cc4)c3c2)C(C)CC1=O` (stereo unspecified), the IC50 in test [1] turned out to be 0.0032 µM; in test [3], 0.004 µM. The Inhibition in test [2] stood at 57%.

In turn, `CCCCc1nc2ccc(C3=NN(CC(=O)N(C)C)C(=O)CC3C)cc2n1Cc1ccc(-c2ccccc2-c2nn[n-]n2)cc1.[K+]` (stereo unspecified) returned an IC50 in test [1] of 0.0028 µM. Regarding `CC1(C)CC(=O)NN=C1c1ccc2nc(C3CC3)n(Cc3ccc(-c4ccccc4-c4nn[n-]n4)cc3)c2c1.[K+]`, the IC50 in test [1] came to 0.0034 µM; in test [3], 0.004 µM. In test [2], this compound displayed an Inhibition of 80%. With `CN(C)C(=O)CN1N=C(c2ccc3nc(C4CC4)n(Cc4ccc(-c5ccccc5-c5nn[n-]n5)cc4)c3c2)CCC1=O.[K+]`, the IC50 in test [1] is 0.0036 µM; in test [3] it was 0.002 µM. On the same counts, the results for `CN(C)C(=O)CN1N=C(c2ccc3nc(C4CC4)n(Cc4ccc(-c5ccccc5-c5nn[n-]n5)cc4)c3c2)C(C)(C)CC1=O.[K+]` are 0.0047 µM and 0.002 µM. For `CCCCc1nc2ccc(C3=NNC(=O)CC3)cc2n1Cc1ccc(-c2ccccc2-c2nn[nH]n2)cc1`, the IC50 in test [1] turned out to be 0.005 µM. In test [4], `COc1ccc(-c2nc3ccc(C4=NNC(=O)CC4C)cc3[nH]2)cc1` (stereo unspecified) [PIMOBENDAN] returned an IC50 of 17 µM. This counts as double-digit micromolar. Regarding `CC1CC(=O)NN=C1c1ccc2nc(C3CC3)n(Cc3ccc(-c4ccccc4-c4nn[nH]n4)cc3)c2c1` (stereo unspecified), the IC50 is 0.0018 µM in test [1] and 0.002 µM in test [3]. The Inhibition in test [2] turned out to be 80%. With `CCCCc1nc2cc(C3=NNC(=O)CC3C)ccc2n1Cc1ccc(-c2ccccc2-c2nnn[nH]2)cc1` (stereo unspecified), the IC50 in test [4] amounted to 0.161 µM.

Regarding `CC1CC(=O)N(CC(=O)N(C)C)N=C1c1ccc2nc(C3CC3)n(Cc3ccc(-c4ccccc4-c4nn[n-]n4)cc3)c2c1.[K+]` (stereo unspecified), the IC50 turned out to be 0.0029 µM in test [1] and 0.002 µM in test [3]. Besides, the Inhibition in test [2] turned out to be 56%.
